These results are taken from patent publication US9029409B2, “Isoxazolines as therapeutic agents” (AbbVie Inc., priority 2011, dated 2015).

Each structure is given as a SMILES string.

This assay concerns the target T1, recombinant human MMP13 catalytic domain (CD) (Homo sapiens, UniProt P45452).
T1 construct: catalytic domain (CD) construct encompassing residues 20-274 (SWISS-PROT P45452); made in house
The assay is described as follows: MMP-13 catalytic domain FRET enzyme assay. In kind it is biochemical. Conditions: recombinant human MMP-13 catalytic domain. In outline: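 Human MMP-13 catalytic domain (res 20-274, E. coli-expressed), 0.4 nM, cleaving FRET peptide (0.25 μM) in Tris pH 7.5/CaCl2/NaCl/Brij 35, 5% DMSO, 60 min RT; EDTA-quenched, fluorescence 485/535 nm. IC50 from sigmoidal fit of % inhibition. Some compounds also run on APMA-activated full-length MMP13 (2 nM).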

Turning to `COc1ccc(CNC(=O)c2cc(C3=NOC(C)(c4ccc(CO)cc4)C3)nc(C)n2)cc1` (centres unmarked), the half-inhibitory concentration (IC50) fell in the range of 100 to 1000 nM. In the case of `COc1cc(CNC(=O)c2cc(C3=NOC(c4ccc(C(=O)NCCO)cc4)C3)nc(C)n2)ccc1F` (centres unmarked), the IC50 was in the range of 10 to 100 nM. To `COc1cc(CNC(=O)c2cc(C3=NOC(CC4CCN(C(C)=O)CC4)C3)nc(C)n2)ccc1F` (centres unmarked) belongs 10 to 100 nM; to `COc1cc(CNC(=O)c2cc(C3=NOC(c4cncnc4)C3)nc(C)n2)ccc1F` (centres unmarked), 10 to 100 nM; to `COc1cc(CNC(=O)c2cc(C3=NOC(c4ccc(C(C)(C)O)cc4)C3)nc(C)n2)ccc1F` (centres unmarked), 10 to 100 nM. For `COc1cc(CNC(=O)c2cc(C3=NOC(CC4CCN(C(=O)CO)CC4)C3)nc(C)n2)ccc1F` (centres unmarked) the value was 10 to 100 nM. For `COc1cc(CNC(=O)c2cc(C3=NOC(CC4CCN(S(C)(=O)=O)CC4)C3)nc(C)n2)ccc1F` (centres unmarked) the value was 10 to 100 nM. Turning to `COc1cc(CNC(=O)c2cc(C3=NOC(c4ccnc(C(N)=O)c4)C3)nc(C)n2)ccc1F` (centres unmarked), the IC50 lay in the range of 10 to 100 nM. To `COc1cc(CNC(=O)c2cc(C3=NOC(c4cn[nH]c4)C3)nc(C)n2)ccc1F` (centres unmarked) belongs 10 to 100 nM. As to `COc1cc(CNC(=O)c2cc(C3=NOC([C@H]4CC[C@H](NC(C)=O)CC4)C3)nc(C)n2)ccc1F` (some centres unmarked), the IC50 is less than 10 nM. For `COc1cc(CNC(=O)c2cc(C3=NOC([C@H]4CC[C@H](NS(C)(=O)=O)CC4)C3)nc(C)n2)ccc1F` (some centres unmarked) the value was less than 10 nM; for `COc1cc(CNC(=O)c2cc(C3=NOC([C@H]4CC[C@H](NC(=O)CO)CC4)C3)nc(C)n2)ccc1F` (some centres unmarked), less than 10 nM; for `COc1cc(CNC(=O)c2cc(C3=NOC(c4ncccn4)C3)nc(C)n2)ccc1F` (centres unmarked), 10 to 100 nM. To `COc1cc(CNC(=O)c2cc(C3=NOC(C4CCOCC4)C3)nc(C)n2)ccc1F` (centres unmarked) belongs less than 10 nM. To `Cc1nc(C(=O)NCc2ccc(F)c(C)c2)cc(C2=NOC(c3ccccn3)C2)n1` (centres unmarked) belongs 10 to 100 nM; to `CC(=O)N1CCC(C2CC(c3cc(C(=O)NCc4ccc(F)c(C)c4)nc(C)n3)=NO2)CC1` (centres unmarked), 10 to 100 nM. Regarding `COc1cc(CNC(=O)c2cc(C3=NO[C@@H]([C@H]4CO[C@H](CO)CO4)C3)nc(C)n2)ccc1F` [drawing 837], the IC50 lay in the range of 100 to 1000 nM.

In the case of `COc1cc(CNC(=O)c2cc(C3=NOC(C4CCN(C(=O)C5CC5)CC4)C3)nc(C)n2)ccc1F` (centres unmarked) [drawing 875], the IC50 lay within 10 to 100 nM. For `COc1cc(CNC(=O)c2cc(C3=NOC(C4CCN(C(=O)N(C)C)CC4)C3)nc(C)n2)ccc1F` (centres unmarked) [drawing 876] the value was less than 10 nM; for `CCNC(=O)N1CCC(C2CC(c3cc(C(=O)NCc4ccc(F)c(OC)c4)nc(C)n3)=NO2)CC1` (centres unmarked) [drawing 877], 10 to 100 nM; for `COc1cc(CNC(=O)c2cc(C3=NOC(C4CCN(C(=O)CNC(C)=O)CC4)C3)nc(C)n2)ccc1F` (centres unmarked) [drawing 879], 10 to 100 nM. Regarding `COc1cc(CNC(=O)c2cc(C3=NOC(C4CCN(C(=O)CC#N)CC4)C3)nc(C)n2)ccc1F` (centres unmarked) [drawing 881], the IC50 lay in the range of 10 to 100 nM.

On to `COc1cc(CNC(=O)c2cc(C3=NOC(C4CCN(C(=O)NCCO)CC4)C3)nc(C)n2)ccc1F` (centres unmarked) [drawing 888], for which the IC50 was less than 10 nM. For `Cc1nc(C(=O)NCc2ccc(F)c(Cl)c2)cc(C2=NO[C@H]([C@H]3CO[C@H](CO)CO3)C2)n1` [drawing 901] the value was less than 10 nM; for `Cc1nc(C(=O)NCc2ccc(F)c(Cl)c2)cc(C2=NO[C@@H]([C@H]3CO[C@H](CO)CO3)C2)n1` [drawing 902], 100 to 1000 nM.

With `COc1ccc(CNC(=O)c2cc(C3=NO[C@H]([C@H]4CO[C@@H](CO)CO4)C3)nc(C)n2)cc1` [drawing 922], the half-maximal inhibitory concentration (IC50) is greater than 1000 nM.

As to `COc1ccc(CNC(=O)c2cc(C3=NO[C@H]([C@H]4CO[C@@H](CO)CO4)C3)nc(C)n2)cc1` [drawing 923], the IC50 was greater than 1000 nM. For `Cc1nc(C(=O)NCc2ccc(F)c(Cl)c2)cc(C2=NO[C@H]([C@H]3CO[C@@H](CO)CO3)C2)n1` [drawing 924] the value was greater than 1000 nM; for `Cc1nc(C(=O)NCc2ccc(F)c(Cl)c2)cc(C2=NO[C@H]([C@H]3CO[C@@H](CO)CO3)C2)n1` [drawing 925], 10 to 100 nM; for `Cc1nc(C(=O)NCc2ccc(F)c(F)c2)cc(C2=NO[C@H]([C@H]3CO[C@H](CO)CO3)C2)n1` [drawing 952], 10 to 100 nM. For `Cc1nc(C(=O)NCc2ccc(F)c(F)c2)cc(C2=NO[C@H]([C@H]3CO[C@H](CO)CO3)C2)n1` [drawing 953], the IC50 is greater than 1000 nM. For `Cc1nc(C(=O)NCc2ccc(F)c(C)c2)cc(C2=NOC(c3ccc(=O)n(C)c3)C2)n1` (centres unmarked) [drawing 990] the value was less than 10 nM. For `Cc1nc(C(=O)NCc2ccc(F)c(C)c2)cc(C2=NOC(c3ccc(=O)n(C)c3)C2)n1` (centres unmarked) [drawing 1015] the value was less than 10 nM; for `COc1cc(CNC(=O)c2cc(C3=NO[C@H]([C@H]4CC[C@H](NC(C)=O)CC4)C3)nc(C)n2)ccc1F` [drawing 1031], less than 10 nM.

Regarding `COc1cc(CNC(=O)c2cc(C3=NO[C@H]([C@H]4CC[C@H](NC(C)=O)CC4)C3)nc(C)n2)ccc1F` [drawing 1032], the IC50 was in the range of 10 to 100 nM. To `COc1cc(CNC(=O)c2cc(C3=NO[C@@H]([C@H]4CO[C@H](CO)CO4)C3)nc(C)n2)ccc1F` [drawing 1055] belongs 100 to 1000 nM.

As for `COc1cc(CNC(=O)c2cc(C3=NOC(C4CCN(C(=O)N(C)C)CC4)C3)nc(C)n2)ccc1F` (centres unmarked) [drawing 1061], the IC50 is less than 10 nM.

Consider `CCNC(=O)N1CCC(C2CC(c3cc(C(=O)NCc4ccc(F)c(OC)c4)nc(C)n3)=NO2)CC1` (centres unmarked) [drawing 1062], for which the IC50 lay within 10 to 100 nM. To `COc1cc(CNC(=O)c2cc(C3=NOC(C4CCN(C(=O)C5CC5)CC4)C3)nc(C)n2)ccc1F` (centres unmarked) [drawing 1063] belongs 10 to 100 nM; to `COc1cc(CNC(=O)c2cc(C3=NOC(C4CCN(C(=O)CNC(C)=O)CC4)C3)nc(C)n2)ccc1F` (centres unmarked) [drawing 1064], 10 to 100 nM; to `COc1cc(CNC(=O)c2cc(C3=NOC(C4CCN(C(=O)CC#N)CC4)C3)nc(C)n2)ccc1F` (centres unmarked) [drawing 1065], 10 to 100 nM.

Consider `COc1cc(CNC(=O)c2cc(C3=NOC(C4CCN(C(=O)NCCO)CC4)C3)nc(C)n2)ccc1F` (centres unmarked) [drawing 1067], for which the half-inhibitory concentration (IC50) is less than 10 nM.

For `Cc1nc(C(=O)NCc2ccc(F)c(Cl)c2)cc(C2=NO[C@H]([C@H]3CO[C@H](CO)CO3)C2)n1` [drawing 1069], the IC50 lay in the range of 10 to 100 nM. For `Cc1nc(C(=O)NCc2ccc(F)c(Cl)c2)cc(C2=NO[C@@H]([C@H]3CO[C@H](CO)CO3)C2)n1` [drawing 1070] the value was greater than 1000 nM.

Usually IC50 stands for the point on the concentration scale where inhibition reaches its midpoint.
